# Laboratory results taken from patent publication US20170226072A1, “1,4-Disubstituted Piperidines, 1,4-Disubstituted Piperazines, 1,4-Disubstituted Diazepines, and 1,3-Disubstituted Pyrrolidine Compounds” (University of Kentucky Research Foundation, priority 2013, published 2017).
# How the values were obtained:
# VMAT2 [1] = target: T1, VMAT2 (Rattus norvegicus, UniProt Q01827); test: [3H]Dihydrotetrabenazine ([3H]DTBZ) binding assay, vesicular preparation; settings: rat brain synaptic vesicles, 3 nM [3H]DTBZ; read-out: Inhibition of [3H]DTBZ binding (Ki) VMAT2
# T1 construct: conducted using isolated synaptic vesicle preparations; from tissue; host or cells: rat striatum, isolated synaptic vesicles
# Method: [^3H]Dihydrotetrabenazine ([^3H]DTBZ) Binding Assay, Vesicular Preparation
# The resulting supernatant (S1) was then centrifuged at 22,000 g for 10 min at 4° C. The synaptosomal pellets (P2) were homogenized in 18 mL of ice-cold Milli-Q water and exposed for 5 min for lysing synaptosomes. Osmolarity was restored by addition of 2 mL of 25 mM HEPES with 100 mM dipotassium tartrate (pH 7.5). Samples were centrifuged at 20,000 g for 20 min at 4° C. to remove lysed synaptosomal membranes. MgSO4 (1 mM) was added to the supernatant (S3), and was centrifuged at 100,000 g for 45 min at 4° C. […] Aliquot parts (100 μL) of suspension of vesicle membrane protein were incubated in assay buffer (25 mM HEPES, 100 mM dipotassium tartrate, 5 mM MgSO4, 0.1 mM EDTA and 0.05 mM EGTA, pH 7.5, at 25° C.) in the presence of 3 nM [^3H]DTBZ and at least 7 concentrations (1 nM-1 mM) of compound for 1 hr at room temperature. Nonspecific binding was determined in the presence of 20 μM tetrabenazine, a standard compound. Assays were performed in duplicate using a 96-well plate format. Reactions were terminated by filtration of samples on a Unifilter-96 GF/B filter plates (presoaked in 0.5% polyethylenimine), using a FilterMate harvester (Packard BioScience Co., Meriden, Conn.).
# After washing 5 times with 350 μL of the ice-cold wash buffer (25 mM HEPES, 100 mM dipotassium tartrate, 5 mM MgSO4 and 10 mM NaCl, pH 7.5), filter plates were dried, sealed and each well filled with 40 μL Packard's MicroScint 20 cocktail. Bound [^3H]DTBZ was measured using a Packard TopCount NXT scintillation counter with a Packard Windows NT based operating system.
# VMAT2 [2] = target: T1, VMAT2; test: [3H]Dopamine ([3H]DA) uptake assay, vesicular preparation; type: biochemical
# Method: [^3H]Dopamine ([^3H]DA) Uptake Assay, Vesicular Preparation
# Homogenates were centrifuged (2,000 g for 10 min at 4° C.), and then the supernatants were centrifuged (10,000 g for 30 min at 4° C.). Pellets were resuspended in 2 ml of 0.32 M sucrose solution and subjected to osmotic shock by adding 7 ml of ice-cold MilliQ water to the preparation. After 1 min, osmolarity was restored by adding 900 μl of 0.25 M HEPES buffer and 900 μl of 1.0 M potassium tartrate solution. Samples were centrifuged (20,000 g for 20 min at 4° C.), and the supernatants were centrifuged (55,000 g for 1 hr at 4° C.), followed by addition of 100 μl of 10 mM MgSO4, 100 μl of 0.25 M HEPES and 100 μl of 1.0 M potassium tartrate solution prior to the final centrifugation (100,000 g for 45 min at 4° C.). Final pellets were resuspended in 2.4 ml of assay buffer (25 mM HEPES, 100 mM potassium tartrate, 50 μM EGTA, 100 μM EDTA, 1.7 mM ascorbic acid, 2 mM ATP-Mg^2+, pH 7.4). Aliquots of the vesicular suspension (100 μl) were added to tubes containing assay buffer, various concentrations of compound (0.1 nM-10 mM) and 0.1 μM [^3H]DA in a final volume of 500 and incubated at 37° C. for 8 min. […] Reactions were terminated by filtration, and radioactivity retained by the filters was determined by liquid scintillation spectrometry (Tri-Carb 2100TR liquid scintillation analyzer; PerkinElmer Life and Analytical Sciences, Boston, Mass.).
# hERG channel = target: T2, hERG channel (Homo sapiens, UniProt Q12809); test: [3H]Dofetilide binding assay, HEK-293 cell membrane preparation; settings: HEK-293 cell membranes expressing hERG, 5 nM [3H]dofetilide; read-out: hERG [3H]Dofetilide Binding Inhibition Mean ± SEM (IC50)
# T2 construct: expressed in transfected cells
# Method: [^3H]Dofetilide Binding Assay, HEK-293 Cell Membrane Preparation
# [^3H]Dofetilide binding assays were conducted using commercially available HEK-293 cell membranes which stably express the hERG channel. Membranes were suspended in assay buffer (50 mM Tris, 10 mM KCl, 1 mM MgCl2, pH 7.4) prior to the experiment. Assays were performed in duplicate in a total volume of 250 μL. Aliquots of the HEK-293 cell membrane suspension which contained 5 μg membrane protein were added to tubes containing assay buffer, 5 nM [^3H]dofetilide and a range of concentrations of analog (10 nM-100 μM). Nonspecific binding was determined in the presence of amitriptyline (1 mM). Samples were incubated for 1 hr. at 24° C., followed by rapid filtration. Radioactivity retained by the filters was determined by liquid scintillation spectrometry as described above for the [^3H]DA uptake assay. The affinity for the [^3H]dofetilide binding site on the hERG channel expressed in the HEK-293 cellular membrane was determined from the analog concentration response curves.
# [3] = target: T3, serotonin transporter (SERT) (Rattus norvegicus, UniProt P31652); test: [3H]5-HT uptake assay, striatal synaptosomal preparation; type: biochemical; settings: rat striatal synaptosomes, GBR-12935 (100 nM) in buffer; read-out: SERT [3H]5-HT Uptake Inhibition Mean ± SEM (Ki)
# T3 construct: from tissue
# Method: (§1) [^3H]DA and [^3H]5-HT Uptake Assay, Synaptosomal Preparation
# (§2) [^3H]DA and [^3H]5-HT uptake into striatal synaptosomes was determined to evaluate compound inhibition of the dopamine transporter (DAT) and the serotonin transporter (SERT), respectively. […] Homogenates were centrifuged at 2000 g for 10 min at 4° C., and resulting supernatants were centrifuged at 20,000 g for 17 min at 4° C. […] Assays were performed in duplicate in a total volume of 500 (for DAT assays) or 250 μL (for SERT assays). […] Reactions were terminated by addition of 3 mL of ice-cold assay buffer and subsequent filtration and radioactivity retained by the filters was determined by liquid scintillation spectrometry (Tri-Carb 2100TR liquid scintillation analyzer; PerkinElmer Life and Analytical Sciences, Boston, Mass.).
# [4] = target: T4, dopamine transporter (DAT) (Rattus norvegicus, UniProt P23977); test: [3H]DA uptake assay, striatal synaptosomal preparation; type: biochemical; settings: rat striatal synaptosomes; read-out: DAT [3H]DA Uptake Inhibition Mean ± SEM (Ki)
# T4 construct: from tissue; host or cells: rat striatum, synaptosomes
# Method: as §1, §2
# [5] = system: VMAT2 over hERG, DAT and SERT; test: Lead compound criteria: 30-fold selectivity for VMAT2 over hERG, DAT and SERT; settings: criterion: 30-fold selectivity for VMAT2 over hERG
# Source text: Accordingly, this test assessed the potential of the tested compounds to produce cardiac arrhythmias via interaction at this off-target site. The criterion for compounds to be considered leads was a 30-fold selectivity for VMAT2 over hERG.
# [6] = rat striatal synaptic vesicles, 0.1 μM [3H]DA, read-out: [3H]DA Uptake (Ki) VMAT2
# [7] = synaptic vesicle preparations, summary of Table 1, read-out: inhibition of [3H]DA uptake, Ki
# T4 sequence (P23977 whole entry): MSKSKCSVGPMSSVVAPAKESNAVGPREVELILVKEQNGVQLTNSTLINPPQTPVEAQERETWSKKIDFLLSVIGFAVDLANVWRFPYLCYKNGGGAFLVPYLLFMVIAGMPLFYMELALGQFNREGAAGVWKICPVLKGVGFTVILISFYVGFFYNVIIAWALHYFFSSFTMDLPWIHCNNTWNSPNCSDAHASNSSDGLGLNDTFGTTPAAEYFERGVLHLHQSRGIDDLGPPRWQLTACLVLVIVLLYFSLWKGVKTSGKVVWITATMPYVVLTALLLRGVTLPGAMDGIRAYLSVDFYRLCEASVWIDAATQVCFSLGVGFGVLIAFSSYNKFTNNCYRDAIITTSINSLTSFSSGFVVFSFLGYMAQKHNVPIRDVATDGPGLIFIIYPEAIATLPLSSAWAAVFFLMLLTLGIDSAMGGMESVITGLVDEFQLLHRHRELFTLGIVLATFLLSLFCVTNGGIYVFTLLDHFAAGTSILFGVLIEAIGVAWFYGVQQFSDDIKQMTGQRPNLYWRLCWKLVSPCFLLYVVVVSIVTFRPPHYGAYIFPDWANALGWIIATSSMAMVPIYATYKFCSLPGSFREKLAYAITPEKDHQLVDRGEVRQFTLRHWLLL
# T3 sequence (P31652 whole entry): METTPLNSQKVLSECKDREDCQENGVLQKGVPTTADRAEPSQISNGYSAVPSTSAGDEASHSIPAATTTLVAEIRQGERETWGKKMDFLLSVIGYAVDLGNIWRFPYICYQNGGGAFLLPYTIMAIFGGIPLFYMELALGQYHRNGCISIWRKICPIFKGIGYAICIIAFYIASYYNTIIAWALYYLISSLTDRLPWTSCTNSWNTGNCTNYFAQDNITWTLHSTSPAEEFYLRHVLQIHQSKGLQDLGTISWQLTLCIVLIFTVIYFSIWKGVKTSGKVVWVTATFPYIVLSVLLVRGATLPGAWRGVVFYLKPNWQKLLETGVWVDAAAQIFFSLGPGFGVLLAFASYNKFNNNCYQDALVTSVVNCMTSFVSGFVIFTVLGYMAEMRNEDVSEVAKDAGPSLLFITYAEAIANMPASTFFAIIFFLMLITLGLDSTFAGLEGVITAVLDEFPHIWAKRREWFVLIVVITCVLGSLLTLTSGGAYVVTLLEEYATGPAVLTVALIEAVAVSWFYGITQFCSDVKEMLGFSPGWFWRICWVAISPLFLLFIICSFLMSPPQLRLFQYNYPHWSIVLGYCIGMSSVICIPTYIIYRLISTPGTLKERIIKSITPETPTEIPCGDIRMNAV
# T2 sequence (Q12809 whole entry): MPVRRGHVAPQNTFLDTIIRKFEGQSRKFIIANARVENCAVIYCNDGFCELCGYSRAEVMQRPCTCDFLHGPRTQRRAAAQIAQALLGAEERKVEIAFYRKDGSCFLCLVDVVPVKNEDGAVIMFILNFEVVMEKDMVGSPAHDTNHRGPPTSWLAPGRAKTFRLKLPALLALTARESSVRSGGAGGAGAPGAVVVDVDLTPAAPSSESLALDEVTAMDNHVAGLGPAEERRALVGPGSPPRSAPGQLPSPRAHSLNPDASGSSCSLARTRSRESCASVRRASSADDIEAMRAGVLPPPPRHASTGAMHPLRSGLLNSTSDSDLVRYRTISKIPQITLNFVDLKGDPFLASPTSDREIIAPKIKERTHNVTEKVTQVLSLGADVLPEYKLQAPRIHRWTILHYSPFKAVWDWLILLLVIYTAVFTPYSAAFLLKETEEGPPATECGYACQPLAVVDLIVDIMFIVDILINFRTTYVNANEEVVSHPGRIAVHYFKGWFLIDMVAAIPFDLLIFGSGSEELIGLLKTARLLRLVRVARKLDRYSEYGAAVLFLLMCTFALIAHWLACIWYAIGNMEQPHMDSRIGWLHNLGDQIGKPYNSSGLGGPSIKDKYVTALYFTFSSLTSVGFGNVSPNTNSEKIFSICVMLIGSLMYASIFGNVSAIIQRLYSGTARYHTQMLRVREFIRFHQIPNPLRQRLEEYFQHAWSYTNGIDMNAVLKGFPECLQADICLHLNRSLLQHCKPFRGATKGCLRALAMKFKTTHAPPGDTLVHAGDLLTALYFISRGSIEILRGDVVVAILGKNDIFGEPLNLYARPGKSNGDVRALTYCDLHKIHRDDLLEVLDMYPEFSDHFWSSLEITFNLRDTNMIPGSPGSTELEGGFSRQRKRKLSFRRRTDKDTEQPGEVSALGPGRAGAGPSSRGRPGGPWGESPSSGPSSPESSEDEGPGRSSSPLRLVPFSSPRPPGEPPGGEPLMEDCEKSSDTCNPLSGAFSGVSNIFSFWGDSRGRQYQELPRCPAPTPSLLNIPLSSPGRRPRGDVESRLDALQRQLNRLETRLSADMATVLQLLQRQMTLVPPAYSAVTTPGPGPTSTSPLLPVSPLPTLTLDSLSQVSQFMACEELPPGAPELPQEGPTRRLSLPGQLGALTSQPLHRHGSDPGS
# T1 sequence (Q01827 whole entry): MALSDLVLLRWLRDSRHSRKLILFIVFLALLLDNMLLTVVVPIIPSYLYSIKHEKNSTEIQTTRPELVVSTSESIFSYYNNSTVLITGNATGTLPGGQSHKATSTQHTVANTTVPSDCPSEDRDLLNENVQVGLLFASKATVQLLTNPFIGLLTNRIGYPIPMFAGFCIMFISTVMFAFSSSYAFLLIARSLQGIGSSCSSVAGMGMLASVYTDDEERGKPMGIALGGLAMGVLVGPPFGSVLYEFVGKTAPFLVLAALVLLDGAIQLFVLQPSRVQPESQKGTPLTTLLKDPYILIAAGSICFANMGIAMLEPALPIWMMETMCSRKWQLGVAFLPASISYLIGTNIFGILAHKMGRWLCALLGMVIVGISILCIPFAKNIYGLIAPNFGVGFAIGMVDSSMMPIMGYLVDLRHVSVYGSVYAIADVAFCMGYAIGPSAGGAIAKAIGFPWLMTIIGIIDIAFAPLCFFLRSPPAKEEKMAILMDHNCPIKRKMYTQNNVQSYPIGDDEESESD
Structure (SMILES),Ki (VMAT2 [1]) [nM],Ki (VMAT2 [2]; [6]) [nM],IC50 (hERG channel) [nM],Ki [3] [nM],Ki [4] [nM],Ki (VMAT2 [2]; [7]) [nM],"lead compound status (30-fold selectivity for VMAT2 over hERG, DAT and SERT) [5]"
COc1cccc(CCN2CCC(CCc3ccccc3)CC2)c1 [Compound 2],265 ± 38,22 ± 0.87,489 ± 84.7,1150 ± 90,3130 ± 190,–,–
"COc1ccccc1CCC1CCN(CCc2ccccc2OC)CC1 [Compound 12, 1,4-bis(2-methoxyphenethyl)piperidine]",190 ± 8.8,9.3 ± 0.6,1070 ± 90.6,120 ± 10,3450 ± 450,9 to 20,successfully met the criteria for lead compound status
COc1ccccc1CCC1CCN(CCc2ccccc2)CC1 [Compound 13],690 ± 50,22 ± 2.8,1650 ± 670,750 ± 180,3560 ± 1210,–,successfully met the criteria for lead compound status
COc1ccc(CCC2CCN(CCc3ccccc3Cl)CC2)cc1 [Compound 24],230 ± 20,40 ± 7,2090 ± 391,4150 ± 1450,5160 ± 1250,–,successfully met the criteria for lead compound status
"COc1ccccc1CCC1CCN(CCc2ccc(F)cc2)CC1 [Compound 29, 1-(4-fluorophenethyl)-4-(2-methoxyphenethyl)piperidine]",400 ± 97,13 ± 2.1,347 ± 18.8,580 ± 70,4130 ± 440,9 to 20,–
"c1ccc(CCN2CCN(CCc3ccccc3)CC2)cc1 [Compound 54, 1,4-diphenethylpiperazine]",3050 ± 640,110 ± 12,3390 ± 1940,11400 ± 4140,13600 ± 2690,–,–
COc1ccccc1CCN1CCN(CCc2ccccc2OC)CC1 [Compound 55],–,–,1020 ± 180,1580 ± 415,14400 ± 456,–,–
COc1cccc(CCN2CCN(CCc3cccc(OC)c3)CC2)c1 [Compound 56],–,–,1490 ± 204,3620 ± 1300,7900 ± 2890,–,–
Clc1ccccc1CCN1CCN(CCc2ccccc2Cl)CC1 [Compound 58],–,–,1080 ± 175,3340 ± 1530,6310 ± 1010,–,–
Fc1ccc(CCN2CCN(CCc3ccc(F)cc3)CC2)cc1 [Compound 59],3710 ± 480,58 ± 12,362 ± 15.5,4950 ± 900,6580 ± 1410,–,–
COc1ccccc1CCN1CCN(CCc2ccccc2)CC1 [Compound 60],–,–,3190 ± 327,2580 ± 415,12800 ± 4460,–,–
COc1cccc(CCN2CCN(CCc3ccccc3)CC2)c1 [Compound 61],1300 ± 330,98 ± 16,4230 ± 860,6920 ± 1350,17200 ± 4520,–,successfully met the criteria for lead compound status
COc1ccc(CCN2CCN(CCc3ccccc3)CC2)cc1 [Compound 62],4630 ± 1310,100 ± 11,9190 ± 375,3720 ± 20,11600 ± 3080,–,successfully met the criteria for lead compound status
Fc1ccc(CCN2CCN(CCc3ccccc3)CC2)cc1 [Compound 64],3860 ± 1010,88 ± 6.9,2290 ± 475,4460 ± 727,8040 ± 2570,–,–
